Measured values from patent US20210121380A1, “Amino Acid Containing Oral Care Composition for Treating Caries By Reducing Lactic Acid Release in Oral Biofilms” (3M INNOVATIVE PROPERTIES COMPANY, priority 2018, published 2021).

Assays:
[1] = test system: human saliva derived microcosm biofilm; test: Lactic acid release of biofilm grown in MCM human derived saliva biofilm system (LDH-NAD-PMS-MTT enzyme assay); format: cell-based, lactic acid producing bacteria (human derived saliva); conditions: for effectiveness for reducing the lactic-acid release of bacteria in a biofilm (in words): reduction by more than 40% vs control considered effective; for activity at 2.7 %: amino acid 2.7 wt. %
Protocol: (§1) A composition was prepared by dissolving the amino acid to be tested in de-ionized water in the given amount.
(§2) Biofilms were grown in a MCM (mucine containing medium plus 1% sucrose) human derived saliva biofilm system.
(§3) A general procedure is summarized below: • 1. Four-hour incubation of bovine sample disks with saliva-mcm (mucine containing medium plus 1% sucrose) at 37° C. • 2. Fresh medium (MCM with different amino acids) for 2-hour incubation at 37° C. • 3. Fresh medium (MCM with different amino acids) for storage over night at 37° C. • 4. Second Day: Fresh medium (MCM with different amino acids) after 22 and 24 hours. • 5. Samples were taken after 26 hours biofilm growth for measurements of lactic acid release and biomass evaluation.
To determine the activity of the grown biofilm, the production of lactic acid in the supernatant (0.75 ml PBS-solution with 5% sucrose per each sample disc) is measured by using the Lactic acid dehydrogenase (LDH)—Nicotinamid-adenin-dinukleotid (NAD)—Phenazine Methosulphate (PMS)—Thiazolyl blue tetrazolium bromide (MTT)—enzyme assay. To guarantee that only freshly produced lactic acid is determined, the samples are washed (in three steps, each lasting 30 sec) in 1.5 ml PBS-solution. The production of lactic acid is evaluated by measuring the lactic acid amount at given points for 30 min. The determination points are: 0 min 15 min and 30 min. For each reading point a sample of 50 μl is taken out of each well. The lactic acid amount at each reading point is determined by using the enzyme assay described above. Lactic acid amount is calculated according to the lactic acid calibration curve.
(§4) In this experiment, the MCM human derived saliva biofilm system was used. The biofilms were grown for 26 hours in continuous presence of sucrose and different amino acids.

[2] = test system: human saliva derived microcosm biofilm; test: Mass of biofilm (wet biomass) grown in MCM human derived saliva biofilm system; format: cell-based; conditions: read-out: Biomass [% from control]; for activity at 2.7 %: Example 1, amino acid 2.7 wt. %
Protocol: as §1, §2, §3
The mass of biofilm was determined as follows: Filter papers are put into 1.5 ml-reaction tubes and were labelled and weighted. The biofilm, that was grown on the enamel disks is carefully wiped off with filter paper. The filter paper containing the wet biofilms were placed back into the respective reaction tube and re-weighted. The wet biomass is calculated from the difference in weight.
as §4

[3] = Homo sapiens, Example 1, amino acid 4.0 wt. %, 26 h biofilm growth, continuous presence of sucrose and amino acid, read-out: Lactic Acid Release after 30 min [% from control]
[4] = Example 1, amino acid 4.0 wt. %, 26 h biofilm growth
[5] = Homo sapiens, Example 1, amino acid 8.0 wt. %, 26 h biofilm growth, continuous presence of sucrose and amino acid, read-out: Lactic Acid Release after 30 min [% from control]
[6] = 26 h, Example 1, amino acid 8.0 wt. %, 26 h biofilm growth
[7] = Homo sapiens, Example 1, 26 h biofilm growth, continuous presence of sucrose and amino acid, read-out: Lactic Acid Release after 30 min [% from control]

C[C@H](N)C(=O)O [Alanine, reference compound]
activity at 4 % [1, 3]: 99.7% | activity at 4 % [2, 4]: 141%

N=C(N)NCCC[C@H](N)C(=O)O [Arginine, reference compound]
effectiveness for reducing the lactic-acid release of bacteria in a biofilm (in words) [1]: not effective | activity at 8 % ([2]; 26 h): 247%

NC(=O)C[C@H](N)C(=O)O [Asparagine, reference compound]
activity at 0.5 % ([1]; Homo sapiens, Example 1, amino acid 0.5 wt. %, 26 h biofilm growth, continuous presence of sucrose and amino acid, read-out: Lactic Acid Release after 30 min [% from control]): 94.7% | activity at 0.5 % ([2]; Example 1, amino acid 0.5 wt. %, 26 h biofilm growth): 102%

N[C@@H](CC(=O)O)C(=O)O [Aspartic acid, reference compound]
activity at 0.1125 % ([1]; Homo sapiens, Example 1, amino acid 0.1125 wt. %, 26 h biofilm growth, continuous presence of sucrose and amino acid, read-out: Lactic Acid Release after 30 min [% from control]): 101% | effectiveness for reducing the lactic-acid release of bacteria in a biofilm (in words) [1]: not effective | activity at 0.1125 % ([2]; Example 1, amino acid 0.1125 wt. %, 26 h biofilm growth): 82.1%

N[C@@H](CS)C(=O)O [Cysteine, reference compound]
activity at 0.625 % ([1]; Homo sapiens, Example 1, amino acid 0.625 wt. %, 26 h biofilm growth, continuous presence of sucrose and amino acid, read-out: Lactic Acid Release after 30 min [% from control]): 85.8% | activity at 0.625 % ([2]; Example 1, amino acid 0.625 wt. %, 26 h biofilm growth): 56.2%

N[C@@H](CCC(=O)O)C(=O)O [Glutamic acid, reference compound]
activity at 0.215 % ([1]; Homo sapiens, Example 1, amino acid 0.215 wt. %, 26 h biofilm growth, continuous presence of sucrose and amino acid, read-out: Lactic Acid Release after 30 min [% from control]): 90.4% | activity at 0.215 % ([2]; Example 1, amino acid 0.215 wt. %, 26 h biofilm growth): 80.2%

NCC(=O)O [Glycine]
activity at 0.5 % ([1]; Homo sapiens, 0.5 h, Example 2, glycine 0.5 wt. %, continuous presence with sucrose, read-out: Lactic Acid Release after 30 min [% from control]): 97.5% | activity at 1 % ([1]; Homo sapiens, 0.5 h, Example 2, glycine 1.0 wt. %, continuous presence with sucrose, read-out: Lactic Acid Release after 30 min [% from control]): 51.6% | activity at 2 % ([1]; Homo sapiens, 0.5 h, Example 2, glycine 2.0 wt. %, continuous presence with sucrose, read-out: Lactic Acid Release after 30 min [% from control]): 32.3% | activity at 4 % ([1]; Homo sapiens, 0.5 h, Example 2, glycine 4.0 wt. %, continuous presence with sucrose, read-out: Lactic Acid Release after 30 min [% from control]): 1.6% | activity at 8 % ([1]; Homo sapiens, 0.5 h, Example 2, glycine 8.0 wt. %, continuous presence with sucrose, read-out: Lactic Acid Release after 30 min [% from control]): 5.6% | activity at 8 % [1, 5]: 5.7% | effectiveness for reducing the lactic-acid release of bacteria in a biofilm (in words) [1]: useful | activity at 8 % [2, 6]: 77.2% | activity at 0.5 % ([2]; 26 h, Example 2, glycine 0.5 wt. %): 143% | activity at 1 % ([2]; 26 h, Example 2, glycine 1.0 wt. %): 146% | activity at 2 % ([2]; 26 h, Example 2, glycine 2.0 wt. %): 96.7% | activity at 4 % ([2]; 26 h, Example 2, glycine 4.0 wt. %): 56.2% | activity at 8 % ([2]; 26 h, Example 2, glycine 8.0 wt. %): 42.2%

N[C@@H](Cc1c[nH]cn1)C(=O)O [Histidine, reference compound]
activity at 3.8 % ([1]; Homo sapiens, Example 1, amino acid 3.8 wt. %, 26 h biofilm growth, continuous presence of sucrose and amino acid, read-out: Lactic Acid Release after 30 min [% from control]): 150% | effectiveness for reducing the lactic-acid release of bacteria in a biofilm (in words) [1]: not effective | activity at 3.8 % ([2]; Example 1, amino acid 3.8 wt. %, 26 h biofilm growth): 106%

CC[C@H](C)[C@H](N)C(=O)O [Isoleucine]
activity at 4 % [1, 3]: 21.9% | effectiveness for reducing the lactic-acid release of bacteria in a biofilm (in words) [1]: useful | activity at 4 % [2, 4]: 104%

CC(C)C[C@H](N)C(=O)O [Leucine]
activity at 2.7 % [1, 7]: 36.7% | effectiveness for reducing the lactic-acid release of bacteria in a biofilm (in words) [1]: useful | activity at 2.7 % ([2]; 26 h biofilm growth): 85.9%

NCCCC[C@H](N)C(=O)O [Lysine]
effectiveness for reducing the lactic-acid release of bacteria in a biofilm (in words) [1]: useful | activity at 8 % ([2]; 26 h): 87.8%

CSCC[C@H](N)C(=O)O [Methionine]
activity at 4.8 % ([1]; Homo sapiens, Example 1, amino acid 4.8 wt. %, 26 h biofilm growth, continuous presence of sucrose and amino acid, read-out: Lactic Acid Release after 30 min [% from control]): 26.9% | effectiveness for reducing the lactic-acid release of bacteria in a biofilm (in words) [1]: useful | activity at 4.8 % ([2]; 26 h, Example 1, amino acid 4.8 wt. %, 26 h biofilm growth): 84.9%

N[C@@H](Cc1ccccc1)C(=O)O [Phenylalanine]
activity at 0.5 % ([1]; Homo sapiens, 0.5 h, Example 3, phenylalanine 0.5 wt. %, continuous presence with sucrose, read-out: Lactic Acid Release after 30 min [% from control]): 45.9% | activity at 1 % ([1]; Homo sapiens, 0.5 h, Example 3, phenylalanine 1.0 wt. %, continuous presence with sucrose, read-out: Lactic Acid Release after 30 min [% from control]): 32.1% | activity at 1.5 % ([1]; Homo sapiens, 0.5 h, Example 3, phenylalanine 1.5 wt. %, continuous presence with sucrose, read-out: Lactic Acid Release after 30 min [% from control]): 16.7% | activity at 2 % ([1]; Homo sapiens, 0.5 h, Example 3, phenylalanine 2.0 wt. %, continuous presence with sucrose, read-out: Lactic Acid Release after 30 min [% from control]): 12.1% | activity at 2.5 % ([1]; Homo sapiens, 0.5 h, Example 3, phenylalanine 2.5 wt. %, continuous presence with sucrose, read-out: Lactic Acid Release after 30 min [% from control]): 3.5% | activity at 2.7 % [1, 7]: 8.6% | effectiveness for reducing the lactic-acid release of bacteria in a biofilm (in words) [1]: useful | activity at 0.5 % ([2]; 26 h, Example 3, phenylalanine 0.5 wt. %): 181% | activity at 1 % ([2]; 26 h, Example 3, phenylalanine 1.0 wt. %): 124% | activity at 1.5 % ([2]; 26 h, Example 3, phenylalanine 1.5 wt. %): 92.7% | activity at 2 % ([2]; 26 h, Example 3, phenylalanine 2.0 wt. %): 96.5% | activity at 2.5 % ([2]; 26 h, Example 3, phenylalanine 2.5 wt. %): 66.9% | activity at 2.7 % ([2]; 26 h biofilm growth): 136%

O=C(O)[C@@H]1CCCN1 [Proline, reference compound]
activity at 8 % [1, 5]: 74.7% | effectiveness for reducing the lactic-acid release of bacteria in a biofilm (in words) [1]: not effective | activity at 8 % [2, 6]: 110%

N[C@@H](CO)C(=O)O [Serine]
activity at 2.7 % [1, 7]: 11.8% | effectiveness for reducing the lactic-acid release of bacteria in a biofilm (in words) [1]: useful | activity at 2.7 % ([2]; 26 h biofilm growth): 84.6%

C[C@@H](O)[C@H](N)C(=O)O [Threonine]
activity at 8 % [1, 5]: 54.6% | effectiveness for reducing the lactic-acid release of bacteria in a biofilm (in words) [1]: useful | activity at 8 % ([2]; Example 1, amino acid 8.0 wt. %, 26 h biofilm growth): 190%

N[C@@H](Cc1c[nH]c2ccccc12)C(=O)O [Tryptophan]
effectiveness for reducing the lactic-acid release of bacteria in a biofilm (in words) [1]: useful | activity at 0.25 % ([2]; 26 h): 181%

N[C@@H](Cc1ccc(O)cc1)C(=O)O [Tyrosine, reference compound]
activity at 0.0095 % ([1]; Homo sapiens, Example 1, amino acid 0.0095 wt. %, 26 h biofilm growth, continuous presence of sucrose and amino acid, read-out: Lactic Acid Release after 30 min [% from control]): 112% | effectiveness for reducing the lactic-acid release of bacteria in a biofilm (in words) [1]: not effective | activity at 0.0095 % ([2]; Example 1, amino acid 0.0095 wt. %, 26 h biofilm growth): 95.3%

CC(C)[C@H](N)C(=O)O [Valine]
activity at 5 % ([1]; Homo sapiens, Example 1, amino acid 5.0 wt. %, 26 h biofilm growth, continuous presence of sucrose and amino acid, read-out: Lactic Acid Release after 30 min [% from control]): 42.1% | effectiveness for reducing the lactic-acid release of bacteria in a biofilm (in words) [1]: useful | activity at 5 % ([2]; Example 1, amino acid 5.0 wt. %, 26 h biofilm growth): 209%

NC(=O)CC[C@H](N)C(=O)O [glutamine, reference compound]
effectiveness for reducing the lactic-acid release of bacteria in a biofilm (in words) [1]: not effective
